Source: patent publication US20100093817A1, “Compounds” (BIAL - PORTELA & CA S.A., priority 2007, published 2010)
Counter-ions that a name gives are not always drawn.

Tests used:
[1] = molecular target: T1, human dopamine-β-hydroxylase (Homo sapiens, UniProt P09172); test: Human DβH in vitro assay: β-hydroxylation of dopamine to noradrenaline, SK-N-SH cells as enzyme source; assay type: biochemical; parameters: key to In vitro DβH inhibition: + = inhibitory activity; conditions: for In vitro DβH inhibition / IC50: SK-N-SH cells as source of human DβH, 50 mM dopamine, test compounds 0.3 to 10,000 nM; for IC50: read-out: In vitro DβH inhibition (IC50 μM); for % control Mean ± SEM: human DβH in vitro assay
T1 construct: SK-N-SH cells (ATCC HTB-11), a human neuroblastoma derived cell line, were used as a source of human dopamine-β-hydroxylase; host or cells: SK-N-SH human neuroblastoma cells
T1 sequence (P09172 1-617): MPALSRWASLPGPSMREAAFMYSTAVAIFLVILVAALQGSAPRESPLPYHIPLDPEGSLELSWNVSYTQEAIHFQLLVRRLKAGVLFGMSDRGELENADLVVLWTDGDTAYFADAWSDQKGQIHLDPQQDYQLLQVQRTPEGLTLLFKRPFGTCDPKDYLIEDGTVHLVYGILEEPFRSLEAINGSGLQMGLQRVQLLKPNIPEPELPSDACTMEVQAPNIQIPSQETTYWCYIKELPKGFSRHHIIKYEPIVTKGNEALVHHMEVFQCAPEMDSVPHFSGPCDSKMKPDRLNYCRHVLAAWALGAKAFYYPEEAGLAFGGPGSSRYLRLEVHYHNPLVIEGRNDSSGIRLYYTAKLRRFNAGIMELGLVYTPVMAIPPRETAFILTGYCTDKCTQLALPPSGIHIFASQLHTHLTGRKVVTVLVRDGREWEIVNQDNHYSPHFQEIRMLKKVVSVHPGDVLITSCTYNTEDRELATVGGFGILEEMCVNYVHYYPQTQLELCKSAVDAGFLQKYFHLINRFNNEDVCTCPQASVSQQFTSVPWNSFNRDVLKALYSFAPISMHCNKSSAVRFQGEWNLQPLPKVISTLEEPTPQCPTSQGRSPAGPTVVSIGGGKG
Protocol: Dopamine-β-hydroxylase activity was evaluated by the ability to β-hydroxylate dopamine to noradrenaline as previously described (Kojima, K., Parvez, S. and Nagatsu T. 1993. Analysis of enzymes in catecholamine biosynthesis. In Methods in Neurotransmitter and Neuropeptide Research, pp. 349-380: Elsevier Science Publishers). SK-N-SH cells (ATCC HTB-11), a human neuroblastoma derived cell line, were used as a source of human dopamine-β-hydroxylase. SK-N-SH cells cultured in 24 well plates were preincubated for 20 min in a reaction medium containing 200 mM sodium acetate, 30 mM N-ethylmaleimide, 5 μM copper sulphate, 0.5 mg/ml catalase aqueous solution, 1 mM pargyline, 10 mM sodium fumarate and 20 mM ascorbic acid. Thereafter, cells were incubated for further 45 min in the reaction medium with added increasing concentrations of dopamine (0.5 to 100 mM). During preincubation and incubation, the cells were continuously shaken and maintained at 37° C. The reaction was terminated by the addition of 0.2 M perchloric acid. The acidified samples were stored at 4° C. before injection into the high pressure liquid chromatograph for the assay of noradrenaline. In experiments conducted with the aim of studying the effects of new dopamine-β-hydroxylase inhibitors on enzyme activity, test compounds (0.3 to 10,000 nM) of interest were added to the preincubation and incubation solutions; the incubation was performed in the presence of a concentration (50 mM) of dopamine 2.5 times the corresponding Km value as determined in saturation experiments.

[2] = literature finding; central as well as peripheral effects; cited from earlier work

Row | Structure (SMILES) | In vitro DβH inhibition [1] | IC50 [1] | % control Mean ± SEM ([1]; compound at 5 μM) | crossing of the blood brain barrier (BBB) [2] | % control Mean ± SEM ([1]; compound at 0.5 μM) | % control Mean ± SEM ([1]; compound at 1 μM)
1 | NCCc1c[nH]c(=S)n1[C@H]1COc2c(F)cc(F)cc2C1 [Compound I, (R)-5-(2-aminoethyl)-1-(6,8-difluorochroman-3-yl)-1,3-dihydroimidazole-2-thione, reference compound] | + | 0.2 µM | – | – | – | –
2 | NCc1c[nH]c(=S)n1[C@H]1CCc2c(F)cc(F)cc2C1 [Nepicastat, reference compound] | – | – | 0.4 ± 0.2 % control | cross the blood brain barrier | – | –
3 | CC(=O)NCCc1c[nH]c(=S)n1[C@H]1COc2c(F)cc(F)cc2C1 [compound II, (R)-N-(2-(3-(6,8-difluorochroman-3-yl)-2-thioxo-2,3-dihydro-1H-imidazol-4-yl)ethyl)acetamide] | + | 0.5 µM | – | – | – | –
4 | O=C(O)Cc1c[nH]c(=S)n1[C@H]1COc2c(F)cc(F)cc2C1 [compound III, (R)-2-(3-(6,8-difluorochroman-3-yl)-2-thioxo-2,3-dihydro-1H-imidazol-4-yl)acetic acid] | + | 0.6 µM | – | – | – | –
5 | O=S(=O)([O-])NCCc1c[nH]c(=S)n1[C@H]1COc2c(F)cc(F)cc2C1.[Na+] [compound VIII, Sodium (R)-2-(3-(6,8-difluorochroman-3-yl)-2-thioxo-2,3-dihydro-1H-imidazol-4-yl)ethylsulfamate] | + | – | 3.5 ± 1.1 % control | – | 32.1 ± 1.1 % control | 20.3 ± 0.7 % control

Second part, led by results:

Row | In vitro DβH inhibition [1] | IC50 [1] | Structure (SMILES) | % control Mean ± SEM ([1]; compound at 5 μM) | crossing of the blood brain barrier (BBB) [2] | % control Mean ± SEM ([1]; compound at 0.5 μM) | % control Mean ± SEM ([1]; compound at 1 μM)
6 | + | 1.8 µM | NC(=O)Cc1c[nH]c(=S)n1[C@H]1COc2c(F)cc(F)cc2C1 [compound IV, (R)-2-(3-(6,8-difluorochroman-3-yl)-2-thioxo-2,3-dihydro-1H-imidazol-4-yl)acetamide] | – | – | – | –
7 | + | 0.5 µM | ONCCc1c[nH]c(=S)n1[C@H]1COc2c(F)cc(F)cc2C1 [compound V, (R)-1-(6,8-difluorochroman-3-yl)-5-(2-(hydroxyamino)ethyl)-1H-imidazole-2(3H)-thione hydrochloride] | – | – | – | –
8 | + | – | NCCc1c[nH]c(=S)n1[C@H]1COc2c(F)cc(F)cc2[C@@H]1O [compound VI, 5-(2-Aminoethyl)-1-((3S ,4S)-6,8-difluoro-4-hydroxychroman-3-yl)-1H-imidazole-2(3H)-thione hydrochloride] | – | – | – | –
